Molecular target: human wildtype CFTR (Homo sapiens, UniProt P13569)
Test: Patch-clamp (whole-cell and inside-out) in FRT cells expressing human wildtype CFTR
Format: cell-based
Parameters: expressed in transfected cells
Excerpt: The pipette (intracellular) solution contained (in mM): 120 CsCl, 10 TEA-Cl, 0.5 EGTA, 1 MgCl2, 10 Cs-HEPES, 40 mannitol, 1 ATP (7.4). For inside-out patch-clamp experiments the pipette solution contained (in mM): 150 N-methyl-D-glucamine chloride (NMDG-Cl), 3 CaCl2, 2 MgCl2, 10 Na-Hepes (pH 7.3). […] Pipette electrical resistance for both whole-cell and inside-out experiments was 3-5 MΩ. The protocol for stimulation consisted of 600-ms voltage steps from −100 to +100 mV in 20 mV increments starting from a holding potential of −60 mV. The interval between steps was 4 s. Membrane currents were filtered at 1 kHz and digitized at 5 kHz. Data were analyzed using the Igor software (Wavemetrics, Portland, Oreg.) with custom software kindly provided by Dr. Oscar Moran.

Chain of human wildtype CFTR (P13569 whole entry): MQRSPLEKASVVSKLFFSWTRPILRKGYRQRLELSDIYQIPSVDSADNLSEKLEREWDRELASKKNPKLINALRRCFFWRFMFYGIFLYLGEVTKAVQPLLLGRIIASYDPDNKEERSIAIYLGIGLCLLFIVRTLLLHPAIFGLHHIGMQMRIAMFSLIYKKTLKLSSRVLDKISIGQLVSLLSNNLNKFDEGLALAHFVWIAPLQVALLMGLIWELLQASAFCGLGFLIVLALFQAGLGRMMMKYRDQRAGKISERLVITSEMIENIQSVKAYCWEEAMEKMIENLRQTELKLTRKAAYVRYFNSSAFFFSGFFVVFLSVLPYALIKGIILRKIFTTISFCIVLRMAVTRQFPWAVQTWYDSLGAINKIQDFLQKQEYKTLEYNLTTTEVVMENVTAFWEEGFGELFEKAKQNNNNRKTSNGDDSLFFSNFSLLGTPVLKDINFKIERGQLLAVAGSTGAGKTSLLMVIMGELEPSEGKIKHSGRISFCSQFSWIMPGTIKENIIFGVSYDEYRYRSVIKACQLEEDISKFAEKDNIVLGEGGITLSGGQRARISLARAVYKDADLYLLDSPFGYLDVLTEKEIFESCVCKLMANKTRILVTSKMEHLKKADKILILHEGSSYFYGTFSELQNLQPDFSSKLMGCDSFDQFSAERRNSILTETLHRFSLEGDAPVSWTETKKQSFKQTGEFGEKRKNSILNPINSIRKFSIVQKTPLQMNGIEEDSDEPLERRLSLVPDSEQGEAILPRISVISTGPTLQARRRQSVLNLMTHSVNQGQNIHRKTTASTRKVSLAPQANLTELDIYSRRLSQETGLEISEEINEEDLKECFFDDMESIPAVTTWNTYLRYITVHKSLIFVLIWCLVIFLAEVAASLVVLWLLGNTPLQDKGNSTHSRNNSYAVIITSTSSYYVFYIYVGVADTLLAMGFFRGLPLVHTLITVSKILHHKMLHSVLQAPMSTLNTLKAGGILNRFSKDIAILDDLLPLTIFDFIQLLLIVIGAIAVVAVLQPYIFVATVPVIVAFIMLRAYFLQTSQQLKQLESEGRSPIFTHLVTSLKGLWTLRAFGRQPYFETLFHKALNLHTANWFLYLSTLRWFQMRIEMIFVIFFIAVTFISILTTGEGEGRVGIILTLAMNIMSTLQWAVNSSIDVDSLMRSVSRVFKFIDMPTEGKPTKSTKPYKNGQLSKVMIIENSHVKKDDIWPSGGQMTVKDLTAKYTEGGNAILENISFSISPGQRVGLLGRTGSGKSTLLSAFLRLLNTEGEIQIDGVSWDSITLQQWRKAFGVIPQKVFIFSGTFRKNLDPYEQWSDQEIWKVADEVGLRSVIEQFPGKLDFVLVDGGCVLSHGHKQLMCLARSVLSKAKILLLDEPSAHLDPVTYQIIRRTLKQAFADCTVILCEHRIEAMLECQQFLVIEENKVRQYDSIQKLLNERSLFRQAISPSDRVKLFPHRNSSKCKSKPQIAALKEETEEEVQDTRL

## Nc1ccc([N+](=O)[O-])cc1-c1nc2ccccc2n(Cc2ccccc2)c1=O [CFTRact-J027, 3-(2-amino-5-nitrophenyl)-1-benzylquinoxalin-2(1H)-one]
1 μM after 150 nM forskolin
  increase of CFTR activity, whole-cell recording: more than four-fold
1 μM after submaximal ATP and catalytic subunit of PKA
  CFTR activity, inside-out patch: strongly increased CFTR activity

— US11084795B2, “CFTR regulators and methods of use thereof” (The Regents of the University of California, priority 2015, dated 2021)
